Results on 22 compounds are retold here after patent US11019821B2, “Fused bicyclic heterocycle derivatives as pesticides” (Bayer Aktiengesellschaft, priority 2018, dated 2021).

Series [1] in a line: log P by HPLC on reversed-phase column, acidic range. In kind it is physicochemical. The note with it: reversed-phase HPLC column (C 18); pH 2.7, 0.1% aqueous formic acid and acetonitrile, C 18 column, 55° C.; read-out: log P (HCOOH). On the procedure:
The log P values are measured according to EEC Directive 79/831 Annex V.A8 by HPLC (high-performance lilog Puid chromatography) on a reversed-phase column (C 18). Temperature: 55° C.
The LC-MS determination in the acidic range is effected at pH 2.7 with 0.1% alog Pueous formic acid and acetonitrile (containing 0.1% formic acid) as eluents; linear gradient from 10% acetonitrile to 95% acetonitrile. Called log P (HCOOH) in the table.
Calibration is effected using unbranched alkan-2-ones (having 3 to 16 carbon atoms) with known log P values (log P values determined on the basis of the retention times by linear interpolation between two successive alkanones).

Series [2] deals with Myzus persicae. The series is described as follows: Myzus persicae oral test. In kind it is in vivo. The note with it: 120 h, application rate 4 ppm, after 5 days, read-out: efficacy (aphids killed). On the procedure:
To produce a suitable active ingredient formulation, 1 part by weight of active ingredient is dissolved with the stated parts by weight of solvent and made up to the desired concentration with water.
50 μl of the active ingredient preparation are transferred into microtitre plates and made up to a final volume of 200 μl with 150 μl of IPL41 insect medium (33%+15% sugar). Subselog Puently, the plates are sealed with parafilm, which a mixed population of green peach aphids (Myzus persicae) within a second microtitre plate is able to puncture and imbibe the solution.
(§1) After 5 days, the efficacy in % is determined. 100% means that all the aphids have been killed; 0% means that no aphids have been killed.

In the next series the test system is Phaedon cochleariae. The series is described as follows: Phaedon cochleariae spray test. The class given is in vivo. The following applies: application rate 100 g/ha, after 7 days, Chinese cabbage leaf discs. As to the method: (§2) To produce a suitable active ingredient formulation, 1 part by weight of active ingredient is dissolved with the specified parts by weight of solvent and made up to the desired concentration with water containing an emulsifier concentration of 1000 ppm. To produce further test concentrations, the formulation is diluted with emulsifier-containing water.
Discs of Chinese cabbage leaves (Brassica pekinensis) are sprayed with an active ingredient formulation of the desired concentration and, after drying, populated with larvae of the mustard beetle (Phaedon cochleariae).
After 7 days, the efficacy in % is determined. 100% means that all the beetle larvae have been killed; 0% means that no beetle larvae have been killed.

A further series concerns Spodoptera frugiperda. The series is described as follows: Spodoptera frugiperda spray test. The class given is in vivo. The note with it: application rate 100 g/ha, after 7 days, maize leaf discs. On the procedure: as §2
Leaf discs of maize (Zea mays) are sprayed with an active ingredient formulation of the desired concentration and, after drying, populated with caterpillars of the armyworm (Spodoptera frugiperda).
After 7 days, the efficacy in % is determined. 100% means that all the caterpillars have been killed; 0% means that no caterpillar has been killed.

Series [3] has as its system Myzus persicae. The series is described as follows: Myzus persicae spray test. In kind it is in vivo. The following applies: foliar, 120 h, application rate 100 g/ha, after 5 days, Chinese cabbage leaf discs, read-out: efficacy (aphids killed). On the procedure: as §2
Discs of Chinese cabbage leaves (Brassica pekinensis) infested by all stages of the green peach aphid (Myzus persicae) are sprayed with an active ingredient formulation of the desired concentration.
as §1

A further series deals with Tetranychus urticae. The series is described as follows: Tetranychus urticae spray test, OP-resistant. The class given is in vivo. The following applies: application rate 100 g/ha, after 6 days, bean leaf discs. As to the method: as §2
Discs of bean leaves (Phaseolus vulgaris) infested with all stages of the greenhouse red spider mite (Tetranychus urticae) are sprayed with an active ingredient formulation of the desired concentration.
After 6 days, the efficacy in % is determined. 100% means that all the spider mites have been killed; 0% means that no spider mites have been killed.

The next series concerns Ctenocephalides felis. The series is described as follows: Ctenocephalides felis oral test. The class given is in vivo. The note with it: application rate 100 ppm in citrated cattle blood, after 2 days, adult cat fleas. As to the method: (§3) Solvent: dimethyl sulfoxide
To produce a suitable active ingredient formulation, 10 mg of active ingredient are mixed with 0.5 ml of dimethyl sulfoxide. Dilution with citrated cattle blood gives the desired concentration.
About 20 unfed adult cat fleas (Ctenocephalides felis) are placed into a chamber which is closed at the top and bottom with gauze. A metal cylinder whose bottom end is closed with parafilm is placed onto the chamber. The cylinder contains the blood/active ingredient formulation, which can be imbibed by the fleas through the parafilm membrane.
After 2 days, the kill in % is determined. 100% means that all of the fleas have been killed; 0% means that none of the fleas have been killed.

A further series concerns Boophilus microplus. The series is described as follows: Boophilus microplus injection test. The note with it: application rate 20 μg/animal, assessed after 7 days, engorged adult female cattle ticks. In kind it is in vivo. As to the method: as §3
To produce a suitable active ingredient formulation, 10 mg of active ingredient are mixed with 0.5 ml of solvent and the concentrate is diluted to the desired concentration with solvent.
1 μl of the active ingredient solution is injected into the abdomen of 5 engorged adult female cattle ticks (Boophilus microplus). The animals are transferred into dishes and kept in a climate-controlled room.
Efficacy is assessed after 7 days by laying of fertile eggs. Eggs which are not visibly fertile are stored in a climate-controlled cabinet until the larvae hatch after about 42 days. An efficacy of 100% means that none of the ticks has laid any fertile eggs; 0% means that all the eggs are fertile.

For a further series, the system named is Diabrotica balteata. The series is described as follows: Diabrotica balteata spray test. In kind it is in vivo. The following applies: application rate 160 μg/cavity, after 7 days, beetle larvae on germinated wheat grains. On the procedure: To produce an appropriate active ingredient formulation, 1 part by weight of active ingredient is dissolved with the given parts by weight of solvent and made up with water containing an emulsifier concentration of 1000 ppm until the desired concentration is attained. Further test concentrations are produced by diluting with emulsifier-containing water.
Pre-swollen wheat grains (Triticum aestivum) are incubated in a multiwell plate filled with agar and a little water for one day (5 seed grains per cavity). The germinated wheat grains are sprayed with an active ingredient formulation of the desired concentration. Subselog Puently, each cavity is infected with 10-20 Diabrotica balteata beetle larvae.
After 7 days, efficacy in % is determined. 100% means that all wheat plants have grown as in the untreated, uninfected control; 0% means that no wheat plant has grown.

As for `Cn1c(-c2nn3c(c2Br)CC(C(F)(F)F)CC3)nc2cc(C(F)(F)F)cnc21` (centres unmarked) [2-[3-Bromo-5-(trifluoromethyl)-4,5,6,7-tetrahydropyrazolo[1,5-a]pyridin-2-yl]-3-methyl-6-(trifluoromethyl)imidazo[4,5-b]pyridine], the chromatographic logP in series [1] is 3.99.
With `O=C(O)c1nn2c(c1Br)CC(C(F)(F)F)CC2` (centres unmarked) [3-Bromo-5-(trifluoromethyl)-4,5,6,7-tetrahydropyrazolo[1,5-a]pyridine-2-carboxylic acid], the chromatographic logP in [1] is 1.75.
Turning to `O=C(O)c1cc2n(n1)CCC(C(F)(F)F)C2` (centres unmarked) [5-(Trifluoromethyl)-4,5,6,7-tetrahydropyrazolo[1,5-a]pyridine-2-carboxylic add], in series [1], the chromatographic logP was found to be 1.28.
On the same count and under the same terms, next, `O=C(O)c1cc2cc(C(F)(F)F)ccn2n1` [5-(Trifluoromethyl)pyrazolo[1,5-a]pyridine-2-carboxylic add]: 1.58; `COC(=O)c1nn2ccc(C(F)(F)F)cc2c1C(=O)OC` [Dimethyl 5-(trifluoromethyl)pyrazolo[1,5-a]pyridine-2,3-dicarboxylate]: 2.57.
Consider `CCS(=O)(=O)c1c(-c2nc3cc(C(F)(F)F)cnc3n2C)nn2c1CC(C(F)(F)F)CC2` (centres unmarked) [Example I-01, 2-[3-Ethylsulfonyl-5-(trifluoromethyl)-4,5,6,7-tetrahydropyrazolo[1,5-a]pyridin-2-yl]-3-methyl-6-(trifluoromethyl)imidazo[4,5-b]pyridine], for which the pest or weed control at 4 ppm with Myzus persicae [2] worked out at 100%. Besides, the “efficacy (beetle larvae killed)” value with Phaedon cochleariae is recorded as 100%. Besides, the “efficacy (caterpillars killed)” value in the series with Spodoptera frugiperda is given as 100%. Also, the chromatographic logP in [1] amounted to 3.21.
On to `CCS(=O)(=O)c1c(-c2nc3cc(C(F)(F)F)cnc3n2C)nn2c1CCCC2` [Example I-03], for which the pest or weed control at 4 ppm with Myzus persicae [2] stood at 100%. For the same compound, the pest or weed control at 100 g/ha with Myzus persicae [3] is 90%. Moreover, the “efficacy (beetle larvae killed)” value in the series on Phaedon cochleariae is 100%.
Regarding `CCS(=O)(=O)c1c(-c2nc3cc(C(F)(F)F)ncc3n2C)nn2c1CC(C(F)(F)F)CC2` (centres unmarked) [Example I-04], the pest or weed control at 4 ppm in the series with Myzus persicae [2] turned out to be 100%. In the series on Myzus persicae [3], the pest or weed control at 100 g/ha is 100%. In the series on Tetranychus urticae, the “efficacy (spider mites killed)” value came to 100%.
In the case of `CCS(=O)(=O)c1c(-c2nc3cc(C(F)(F)F)ncc3n2C)nn2c1CCC(C)C2` (centres unmarked) [Example I-06], the pest or weed control at 100 g/ha in the series with Myzus persicae [3] came to 90%.
With `CCS(=O)(=O)c1c(-c2nc3cc(C(F)(F)F)cnc3n2C)nn2c1CCC(C)C2` (centres unmarked) [Example I-07], the pest or weed control at 4 ppm in the series on Myzus persicae [2] came out at 100%.
As to `CCS(=O)(=O)c1c(-c2nc3cc(C(F)(F)C(F)(F)F)cnc3n2C)nn2c1CCC(C)C2` (centres unmarked) [Example I-08], the pest or weed control at 4 ppm with Myzus persicae [2] was determined as 100%. Besides, in the series on Spodoptera frugiperda, the “efficacy (caterpillars killed)” value worked out at 100%.
Take `CCS(=O)(=O)c1c(-c2nc3cc(OC(F)(F)F)cnc3n2C)nn2c1CCC(C)C2` (centres unmarked) [Example I-09]: the pest or weed control at 4 ppm with Myzus persicae [2] is 90%. The pest or weed control at 100 g/ha in the series with Myzus persicae [3] amounted to 90%.
In the case of `CCS(=O)(=O)c1c(-c2nc3cc(C(F)(F)F)cnc3n2C)nn2c1CC(C)CC2` (centres unmarked) [Example I-10], the pest or weed control at 4 ppm in the series with Myzus persicae [2] is 100%. Besides, the pest or weed control at 100 g/ha in the series with Myzus persicae [3] stood at 90%. Moreover, the “efficacy (spider mites killed)” value in the series on Tetranychus urticae is listed as 90%.
On to `CCS(=O)(=O)c1c(-c2nc3cc(SC(F)(F)F)cnc3n2C)nn2c1CCC(C)C2` (centres unmarked) [Example I-11], for which the “efficacy (kill in %)” value in the series on Ctenocephalides felis is 100%. Besides, the pest or weed control at 4 ppm in the series with Myzus persicae [2] is 100%. For the same compound, the pest or weed control at 100 g/ha in the series on Myzus persicae [3] came to 90%. Besides, in the series on Spodoptera frugiperda, the “efficacy (caterpillars killed)” value stood at 83%.
As to `CCS(=O)(=O)c1c(-c2nc3cc(C(F)(F)C(F)(F)F)ncc3n2C)nn2c1CCCC2` [Example I-12], the pest or weed control at 4 ppm in the series on Myzus persicae [2] was 100%. Also, the pest or weed control at 100 g/ha in the series with Myzus persicae [3] came to 90%. Besides, in the series with Phaedon cochleariae, the “efficacy (beetle larvae killed)” value turned out to be 100%.
`CCS(=O)(=O)c1c(-c2nc3cc(C(F)(F)C(F)(F)F)ncc3n2C)nn2c1CC(C)CC2` (centres unmarked) [Example I-13]: in the series with Boophilus microplus, the “efficacy (no laying of fertile eggs)” value turned out to be 100%. The “efficacy (kill in %)” value in the series with Ctenocephalides felis came to 100%. Also, in the series on Myzus persicae [2], the pest or weed control at 4 ppm came to 100%. Moreover, the pest or weed control at 100 g/ha with Myzus persicae [3] amounted to 90%. Besides, the “efficacy (caterpillars killed)” value in the series with Spodoptera frugiperda was 100%. Further, in the series with Tetranychus urticae, the “efficacy (spider mites killed)” value was 100%.
On to `CCS(=O)(=O)c1c(-c2nc3cc([S+]([O-])C(F)(F)F)cnc3n2C)nn2c1CCC(C)C2` (centres unmarked) [Example I-14], for which the pest or weed control at 4 ppm in the series with Myzus persicae [2] stood at 100%. Moreover, the pest or weed control at 100 g/ha in the series with Myzus persicae [3] turned out to be 100%.
As to `CCS(=O)(=O)c1c(-c2nc3cc(S(=O)(=O)C(F)(F)F)cnc3n2C)nn2c1CCC(C)C2` (centres unmarked) [Example I-15], the “efficacy (kill in %)” value in the series with Ctenocephalides felis was 90%. In addition, the pest or weed control at 4 ppm with Myzus persicae [2] was 90%. Besides, the pest or weed control at 100 g/ha with Myzus persicae [3] is 90%. The “efficacy (caterpillars killed)” value in the series on Spodoptera frugiperda turned out to be 100%.
Turning to `CCS(=O)(=O)c1c(-c2nc3cc(S(=O)(=O)C(F)(F)F)ccc3o2)nn2c1CCC(C)C2` (centres unmarked) [Example I-16], in the series with Myzus persicae [2], the pest or weed control at 4 ppm amounted to 90%.
Take `CCS(=O)(=O)c1c(-c2nc3cc(C(F)(F)C(F)(F)F)ncc3n2C)nn2c1CCC(C(F)(F)F)C2` (centres unmarked) [Example I-17]: the “efficacy (wheat plants grown as in untreated, uninfected control)” value with Diabrotica balteata was 100%. Moreover, the pest or weed control at 4 ppm in the series with Myzus persicae [2] came to 100%. Moreover, in the series on Spodoptera frugiperda, the “efficacy (caterpillars killed)” value came out at 100%.
In the case of `CCS(=O)(=O)c1c(-c2nc3c(n2C)CN(C)C(C(F)(F)F)=C3)nn2c1CCC(C(F)(F)F)C2` (centres unmarked) [Example I-18], in the series with Diabrotica balteata, the “efficacy (wheat plants grown as in untreated, uninfected control)” value is 100%. The pest or weed control at 4 ppm in the series on Myzus persicae [2] is 100%. In the series with Myzus persicae [3], the pest or weed control at 100 g/ha was 90%.
On to `CCS(=O)(=O)c1c(-c2nc3cc(C(F)(F)C(F)(F)F)cnc3n2C)nn2c1CCC(C(F)(F)F)C2` (centres unmarked) [Example I-19], for which the “efficacy (wheat plants grown as in untreated, uninfected control)” value in the series with Diabrotica balteata was 100%. The pest or weed control at 4 ppm with Myzus persicae [2] stood at 100%. For the same compound, in the series with Spodoptera frugiperda, the “efficacy (caterpillars killed)” value was 100%.
